# Measured values from patent US20250313546A1, “NUCLEIC ACID BINDERS” (UNIVERSITY OF STRATHCLYDE, priority 2022, published 2025).
# Key:
# Assay in all cases: Antibacterial MIC, broth microdilution (CLSI)
# Assay type in all cases: cell-based
# [1] = tested on: Escherichia coli (ATCC 25922); details: Escherichia coli, ATCC25922; read-out: MIC80 E. coli
# [2] = tested on: Enterococcus faecalis (ATCC 51299); details: Enterococcus faecalis, ATCC51299; read-out: MIC80 E. faecalis
# [3] = tested on: Staphylococcus aureus (ATCC 43300); details: Staphylococcus aureus, ATCC43300; read-out: MIC80 S. aureus
structure (smiles),measurement,setting,value
"Cn1cc(NC(=O)c2cc(NC(=O)c3ccc(/C=C/c4cnc5ccccc5c4)cc3)cn2C)cc1C(=O)NCCC(=N)NCCN1CCSCC1 [Ia47, (E)-N-(3-imino-3-((2-thiomorpholinoethyl)amino)propyl)-1-methyl-4-(1-methyl-4-(4-(2-(quinolin-3-yl)vinyl)benzamido)-1H-pyrrole-2-carboxamido)-1H-pyrrole-2-carboxamide]",MIC80,[1],> 100 µM
same,MIC80,[2],> 100 µM
same,MIC80,[3],5 to 25 µM
"Cn1cc(NC(=O)c2cc(NC(=O)c3ccc(/C=C/c4cnc5ccccc5c4)cc3)cn2C)cc1C(=O)NCCC(=N)NCCc1ccccc1 [Ia48, (E)-N-(3-imino-3-(phenethylamino)propyl)-1-methyl-4-(1-methyl-4-(4-(2-(quinolin-3-yl)vinyl)benzamido)-1H-pyrrole-2-carboxamido)-1H-pyrrole-2-carboxamide]",MIC80,[1],> 100 µM
same,MIC80,[2],< 5 µM
same,MIC80,[3],< 5 µM
"[H]/N=C(\CCNC(=O)c1cc(NC(=O)c2cc(NC(=O)c3ccc(C=Cc4ccc(N(C)C)cc4)nc3)cn2C)cn1C)NCCc1ccccc1 [Ia49, (E)-6-(4-(dimethylamino)styryl)-N-(5-((5-((3-imino-3-(phenethylamino)propyl)carbamoyl)-1-methyl-1H-pyrrol-3-yl)carbamoyl)-1-methyl-1H-pyrrol-3-yl)nicotinamide]",MIC80,[1],> 100 µM
same,MIC80,[2],> 100 µM
same,MIC80,[3],< 5 µM
"CC/N=C(/CCNC(=O)c1cc(NC(=O)c2cc(NC(=O)c3ccc(/C=C/c4cnc5ccccc5c4)cc3)cn2C)cn1C)NCC [Ia50, N—((Z)-3-(ethylamino)-3-(ethylimino)propyl)-1-methyl-4-(1-methyl-4-(4-((E)-2-(quinolin-3-yl)vinyl)benzamido)-1H-pyrrole-2-carboxamido)-1H-pyrrole-2-carboxamide]",MIC80,[1],> 100 µM
same,MIC80,[2],25 to 100 µM
same,MIC80,[3],25 to 100 µM
"CC/N=C(/CCNC(=O)c1cc(NC(=O)c2cc(NC(=O)c3ccc(/C=C/c4ccc(N(C)C)cc4)nc3)cn2C)cn1C)NCC [Ia51, 6-((E)-4-(dimethylamino)styryl)-N-(5-((5-(((Z)-3-(ethylamino)-3-(ethylimino)propyl)carbamoyl)-1-methyl-1H-pyrrol-3-yl)carbamoyl)-1-methyl-1H-pyrrol-3-yl)nicotinamide]",MIC80,[1],> 100 µM
same,MIC80,[2],25 to 100 µM
same,MIC80,[3],25 to 100 µM
"[H]/N=C(\CCNC(=O)c1cc(NC(=O)c2cc(NC(=O)c3ccc(C=Cc4ccc(N(C)C)cc4)nc3)cn2C)cn1C)NCCN1CCSCC1 [Ia52, (E)-6-(4-(dimethylamino)styryl)-N-(5-((5-((3-imino-3-((2-thiomorpholinoethyl)amino)propyl)carbamoyl)-1-methyl-1H-pyrrol-3-yl)carbamoyl)-1-methyl-1H-pyrrol-3-yl)nicotinamide]",MIC80,[1],> 100 µM
same,MIC80,[2],> 100 µM
same,MIC80,[3],5 to 25 µM
"C/N=C(\CCNC(=O)c1cc(NC(=O)c2cc(NC(=O)c3ccc(/C=C/c4cccc(OC)c4)cc3)cn2C)cn1C)NC [Ia53, 4-(4-((E)-3-methoxystyryl)benzamido)-1-methyl-N-(1-methyl-5-(((E)-3-(methylamino)-3-(methylimino)propyl)carbamoyl)-1H-pyrrol-3-yl)-1H-pyrrole-2-carboxamide]",MIC80,[1],> 100 µM
same,MIC80,[2],5 to 25 µM
same,MIC80,[3],< 5 µM
"C/N=C(\CCNC(=O)c1cc(NC(=O)c2cc(NC(=O)c3ccc(/C=C/c4ccc(OC)cc4)nc3)cn2C)cn1C)NC [Ia54, 6-((E)-4-methoxystyryl)-N-(1-methyl-5-((1-methyl-5-(((E)-3-(methylamino)-3-(methylimino)propyl)carbamoyl)-1H-pyrrol-3-yl)carbamoyl)-1H-pyrrol-3-yl)nicotinamide]",MIC80,[1],> 100 µM
same,MIC80,[2],5 to 25 µM
same,MIC80,[3],5 to 25 µM
"CNC(=N)CCNC(=O)c1cc(NC(=O)c2cc(NC(=O)c3ccc(/C=C/c4ccc(OC)cc4)nc3)cn2C)cn1C [Ia55, (E)-N-(5-((5-((3-imino-3-(methylamino)propyl)carbamoyl)-1-methyl-1H-pyrrol-3-yl)carbamoyl)-1-methyl-1H-pyrrol-3-yl)-6-(4-methoxystyryl)nicotinamide]",MIC80,[1],> 100 µM
same,MIC80,[2],5 to 25 µM
same,MIC80,[3],5 to 25 µM
"CNC(=N)CCNC(=O)c1cc(NC(=O)c2cc(NC(=O)c3ccc(/C=C/c4cccc(OC)c4)cc3)cn2C)cn1C [Ia56, (E)-N-(3-imino-3-(methylamino)propyl)-4-(4-(4-(3-methoxystyryl)benzamido)-1-methyl-1H-pyrrole-2-carboxamido)-1-methyl-1H-pyrrole-2-carboxamide]",MIC80,[1],> 100 µM
same,MIC80,[2],5 to 25 µM
same,MIC80,[3],5 to 25 µM
"Cn1cc(NC(=O)c2cc(NC(=O)c3ccc(/C=C/c4cnc5ccccc5c4)cc3)cn2C)cc1C(=O)NCC/C(=N/CC(F)F)NCC(F)F [Ia57, N—((Z)-3-((2,2-difluoroethyl)amino)-3-((2,2-difluoroethyl)imino)propyl)-1-methyl-4-(1-methyl-4-(4-((E)-2-(quinolin-3-yl)vinyl)benzamido)-1H-pyrrole-2-carboxamido)-1H-pyrrole-2-carboxamide]",MIC80,[1],> 100 µM
same,MIC80,[2],5 to 25 µM
same,MIC80,[3],< 5 µM
"COCCNC(=N)CCNC(=O)c1cc(NC(=O)c2cc(NC(=O)c3ccc(/C=C/c4cnc5ccccc5c4)cc3)cn2C)cn1C [Ia58, (E)-N-(3-imino-3-((2-methoxyethyl)amino)propyl)-1-methyl-4-(1-methyl-4-(4-(2-(quinolin-3-yl)vinyl)benzamido)-1H-pyrrole-2-carboxamido)-1H-pyrrole-2-carboxamide]",MIC80,[1],> 100 µM
same,MIC80,[2],5 to 25 µM
same,MIC80,[3],< 5 µM
"C/N=C(/CCNC(=O)c1cc(NC(=O)c2cc(NC(=O)c3ccc(/C=C/c4ccc(F)c(OC)c4)nc3)cn2C)cn1C)NC [Ia59, 6-((E)-4-fluoro-3-methoxystyryl)-N-(1-methyl-5-((1-methyl-5-(((Z)-3-(methylamino)-3-(methylimino)propyl)carbamoyl)-1H-pyrrol-3-yl)carbamoyl)-1H-pyrrol-3-yl)nicotinamide]",MIC80,[1],> 100 µM
same,MIC80,[2],> 100 µM
same,MIC80,[3],< 5 µM
"C/N=C(/CCNC(=O)c1cc(NC(=O)c2cc(NC(=O)c3ccc(/C=C/c4cncnc4)cc3)cn2C)cn1C)NC [Ia60, 1-methyl-4-(1-methyl-4-(4-((E)-2-(pyrimidin-5-yl)vinyl)benzamido)-1H-pyrrole-2-carboxamido)-N—((Z)-3-(methylamino)-3-(methylimino)propyl)-1H-pyrrole-2-carboxamide]",MIC80,[1],> 100 µM
same,MIC80,[2],5 to 25 µM
same,MIC80,[3],< 5 µM
"C/N=C(/CCNC(=O)c1cc(NC(=O)c2cc(NC(=O)c3ccc(/C=C/c4cccc(C(F)(F)F)c4)nc3)cn2C)cn1C)NC [Ia61, N-(1-methyl-5-((1-methyl-5-(((Z)-3-(methylamino)-3-(methylimino)propyl)carbamoyl)-1H-pyrrol-3-yl)carbamoyl)-1H-pyrrol-3-yl)-6-((E)-3-(trifluoromethyl)styryl)nicotinamide]",MIC80,[1],> 100 µM
same,MIC80,[2],5 to 25 µM
same,MIC80,[3],5 to 25 µM
"Cn1cc(NC(=O)c2cc(NC(=O)c3ccc(/C=C/c4cnc5ccccc5c4)cc3)cn2C)cc1C(=O)NCCC(=N)NCC(F)F [Ia62, (E)-N-(3-((2,2-difluoroethyl)amino)-3-iminopropyl)-1-methyl-4-(1-methyl-4-(4-(2-(quinolin-3-yl)vinyl)benzamido)-1H-pyrrole-2-carboxamido)-1H-pyrrole-2-carboxamide]",MIC80,[1],> 100 µM
same,MIC80,[2],< 5 µM
same,MIC80,[3],< 5 µM
"CN(C)c1ccc(/C=C/c2ccc(C(=O)Nc3cc(C(=O)Nc4cc(C(=O)NCCC(=N)NCC(F)F)n(C)c4)n(C)c3)cn2)cc1 [Ia63, (E)-N-(5-((5-((3-((2,2-difluoroethyl)amino)-3-iminopropyl)carbamoyl)-1-methyl-1H-pyrrol-3-yl)carbamoyl)-1-methyl-1H-pyrrol-3-yl)-6-(4-(dimethylamino)styryl)nicotinamide]",MIC80,[1],> 100 µM
same,MIC80,[2],25 to 100 µM
same,MIC80,[3],< 5 µM
"[H]/N=C(\CCNC(=O)c1cc(NC(=O)c2cc(NC(=O)c3ccc(C=Cc4ccc(N(C)C)cc4)nc3)cn2C)cn1C)N1CCSCC1 [Ib9, (E)-6-(4-(dimethylamino)styryl)-N-(5-((5-((3-imino-3-thiomorpholinopropyl)carbamoyl)-1-methyl-1H-pyrrol-3-yl)carbamoyl)-1-methyl-1H-pyrrol-3-yl)nicotinamide]",MIC80,[1],> 100 µM
same,MIC80,[2],25 to 100 µM
same,MIC80,[3],< 5 µM
"[H]/N=C(\CCNC(=O)c1cc(NC(=O)c2cc(NC(=O)c3ccc(C=Cc4ccc(N(C)C)cc4)nc3)cn2C)cn1C)N1CCN(C)CC1 [Ib10, (E)-6-(4-(dimethylamino)styryl)-N-(5-((5-((3-imino-3-(4-methylpiperazin-1-yl)propyl)carbamoyl)-1-methyl-1H-pyrrol-3-yl)carbamoyl)-1-methyl-1H-pyrrol-3-yl)nicotinamide]",MIC80,[1],> 100 µM
same,MIC80,[2],> 100 µM
same,MIC80,[3],5 to 25 µM
"[H]/N=C(\CCNC(=O)c1cc(NC(=O)c2cc(NC(=O)c3ccc(C=Cc4ccc(N(C)C)cc4)nc3)cn2C)cn1C)N1CCOCC1 [Ib11, (E)-6-(4-(dimethylamino)styryl)-N-(5-((5-((3-imino-3-morpholinopropyl)carbamoyl)-1-methyl-1H-pyrrol-3-yl)carbamoyl)-1-methyl-1H-pyrrol-3-yl)nicotinamide]",MIC80,[1],> 100 µM
same,MIC80,[2],5 to 25 µM
same,MIC80,[3],< 5 µM
"COCCOCCOCC[N+](C)(C)CCNC(=O)c1cc(NC(=O)c2cc(NC(=O)c3ccc(/C=C/c4cnc5ccccc5c4)cc3)cn2C)cn1C [Ic19, (E)-2-(2-(2-methoxyethoxy)ethoxy)-N,N-dimethyl-N-(2-(1-methyl-4-(1-methyl-4-(4-(2-(quinolin-3-yl)vinyl)benzamido)-1H-pyrrole-2-carboxamido)-1H-pyrrole-2-carboxamido)ethyl)ethan-1-aminium]",MIC80,[1],> 100 µM
same,MIC80,[2],5 to 25 µM
same,MIC80,[3],< 5 µM
